Assay results published in US6521593B1, “Methods for inhibiting brain tumor growth” (Childrens Hospital Los Angeles, priority 1999, dated 2003).

Tests used:
[1] = test system: DAOY medulloblastoma cells; test: Tumor cell adhesion to ECM proteins (FIG. 7), DAOY; type: cell-based, human; conditions: DAOY on vitronectin and tenascin, 20 μg/ml, 8-hour incubation
Procedure: (§1) Non tissue culture dishes were incubated 1 hour at 37° C. with vitronectin, tenascin, fibronectin or collagen I (10 μg/ml), then washed with PBS. After the wash, 5×10^5 cells /well were plated and incubated for 16 hours at 37° C. The cultures were then washed and an adhesion buffer containing 20 μg/ml of pentapeptide or control peptide were added and incubated for an additional 2-24 hours. The cultures were then washed twice with adhesion buffer and stained with Crystal violet and the OD 600 determined. The more adherent cells are present, the higher the OD. Data represent adherent cells after 8-hour incubation. U87=glioblastoma and DAOY=medulloblastoma.

brain capillary cells = test: Apoptosis of cells grown on ECM (FIG. 8), brain capillary cells; type: cell-based, human; conditions: 20 μg/ml, 24 hours
Procedure: as §1
(§2) Test conditions were as in FIG. 7, except that detached cells and adherent cells were combined after trypsinisation. The cells were then washed, suspended in 50 μl PBS and centrifuged in glass cover slides (cytospin). After fixation with 4% paraformaldehyde, the cells were stained for apoptosis using the Boehringer Apoptosis Kit. Results are expressed in a percentage of apoptotic cells versus total number of cells. Experiment was done after 24 hours of incubation with the peptides.

primary HBEC = test: Apoptosis on vitronectin (Annexin V-FITC FACS), HBEC; type: cell-based, human; conditions: 20 μg/ml, 4 hrs
Procedure: (§3) Apoptosis: Adhesion conditions were as above, except that 12 well plates covered with vitronectin and 5×10^5 cells/well were plated in adhesion buffer. […] Attached cells were trypsinized and combined with the detached cells in the supernatant and then examined for the presence of apoptotic cells using the Apo Alert Annexin V-FITC apoptosis kit (Clontech).
(§4) FIGS. 6a-6d show the integrin profile (a), effect of αv-antagonist on adhesion to (b), migration on (c) and cell viability on vitronectin (d) for brain tumor and brain capillary endothelial cells. Both DAOY and U87MG tumor cells and brain capillary cells express the integrins αvβ3 and αvβ5 (a). […] Cell viability was tested by letting the cells attach to vitronectin for 1 hour, and then exposing them for 4 hours to the control peptide or αv-antagonist (20 μg/ml) (d). Adherent and floating cells were combined and examined by FACS for apoptosis, using FITC labeled anti-annexin V and propidium iodide.
(§5) We have previously shown that pre-incubation of brain tumor or capillary cells with the cRGD peptide, or the combination of anti-αvβ3 and anti-αvβ5 antibodies, prevents cell adhesion to vitronectin. […] Attached cells were combined after trypsinization with floating cells and the number of apoptotic cells was determined by FACS, using anti-annexin V-FITC antibody and propidium iodide (Clontech Apo alert Annexin V-FITC detection apoptosis kit).

[2] = test system: human brain endothelial cells (HBEC); test: Vitronectin adhesion, HBEC; type: cell-based; conditions: test substance 20 μg/ml
Procedure: (§6) Adhesion: Assay conditions were as previously described (15). Non-tissue culture treated wells incubated overnight at 4° C. with vitronectin (1-10 μg/ml PBS), washed and blocked for 30 min. with heat denatured 1% BSA in PBS, followed by washing with PBS. Control and test cells, pre-incubated at 37° C. with the test substance (20 μg/ml) in adhesion buffer for 30 min. were plated into wells (5×10^4 cells/well) and incubated for 1 hr at 37° C. After gentle washing of the wells with adhesion buffer, adhering cells were fixed and stained with crystal violet, the dye solubilized in methanol and the OD determined at […].
(§7) To determine if αvβ3 and αvβ5 regulate DAOY, U87MG and HBEC adhesion to vitronecin, the cells were plated in vitronectin-coated wells and allowed to adhere in the presence or absence of either blocking antibodies to αvβ3 (LM-609) and αvβ5 (P1-F6) or the cRGD peptide.

DAOY cells [3] = test: Vitronectin adhesion, DAOY; type: cell-based, human; conditions: test substance 20 μg/ml
Procedure: as §6, §7

U87MG cells [4] = test: Orthotopic brain tumor model, U87MG cells injected intracerebrally in nu/nu mice
Procedure: (§14) Tumor cells (10^6/10 μl PBS) were injected intracerebrally at the coordinates mentioned. […] The animals were then sacrificed by CO2 anesthesia, the brains removed and either snap frozen in liquid nitrogen or fixed in buffered formalin, embedded in paraffin and the cut sections stained with Hematoxylin-Eosin.
DAOY and U87MG cells (10^6 cells/mouse) were stereotactically injected into the right frontal cortex of nu/nu mice in order to establish a system that recapitulates the brain microenvironment.
(§15) Additional animals were tested for survival. Survival was measured as the time point in which mice required sacrifice, due to a moribund state. […] N for DAOY and U87MG control is 16 mice each and 32 mice for treated DAOY and 24 for treated U87MG.
Tumors were removed after 2 weeks of treatment, fixed in buffered formalin, embedded in paraffin and 5 μm sections obtained.

[5] = test system: M21L αv neg melanoma cells; test: Survival of nude mice with αv-negative melanoma cells implanted into the brain; type: in vivo; conditions: 10^6 cells into forebrain of nude mice
Text: (§8) Mice were sacrificed when becoming cachectic and the presence of tumor was verified by autopsy.

U87MG cells [6] = test: Vitronectin adhesion, U87MG; type: cell-based, human; conditions: test substance 20 μg/ml
Procedure: as §6, §7

U87 glioblastoma cells [7] = test: Tumor cell adhesion to ECM proteins (FIG. 7), U87; type: cell-based, human; conditions: U87 on vitronectin and tenascin, 20 μg/ml, 8-hour incubation
Procedure: as §1

[8] = test system: DAOY human brain tumor cells; test: CAM assay: angiogenesis and growth of DAOY tumors on chick chorioallantoic membrane; type: in vivo; conditions: 100 μg into a CAM vein, 6 days
Procedure: (§9) CAM assay: Egg supplier and preparation have been described earlier (23). Tumor cells were plated in 50 μl PBS at 4×10^6 cells/egg for DAOY and 3.5×10^6 cells/egg for U87MG. Cells were grown to tumors for 7 days, then harvested under sterile conditions, trimmed to similar sizes and […] onto the CAM of 10-day-old embryos. […] Tumors were photographed in situ after 7 days of growth, then harvested, weighed and fixed in 4% buffered formalin and embedded in paraffin. After serial sectioning, slides were stained with hematoxilin and eosin.
(§10) To assess the effect of αv antagonism on brain tumor associated angiogenesis, DAOY and U87MG human brain tumor cells were grown on chick chorioallantoic membranes (CAMs). The tumors were allowed to grow for 7 days before they were removed and reimplanted onto fresh CAMs. 24 hours after transfer, 100 μg of either the active cRGD peptide or control peptide (cRAD) was injected into a CAM vein. Tumors were grown for an additional 6 days and then weighed and analyzed for vascularization. […] In contrast to control tumors, which increased 80% in weight, αv-antagonist treated tumors decreased 30% in weight (FIG. 1b).
(§11) FIGS. 1a and 1b show the inhibition of angiogenesis (a) and tumor growth on the CAM (b) by an αv-antagonist. Brain tumors grown on CAMs were harvested and cut to similar sizes and placed on fresh CAMs of 10-day-old chicken eggs. The following day, 100 μg of active αv-inhibitor or control peptide were injected into the chicken veins and grown for another 6 days. […] Tumors placed on the CAM were weighed at the beginning and end of the experiment (b). The weight of the tumors treated with the control peptide increased by 80% for both tumor types (left, n=8), whereas it decreased by about 30% when the active peptide was administered (right, n=8).

U87MG cells [9] = test: Heterotopic (subcutaneous) tumor model, U87MG cells in nude mice
Procedure: (§16) Subcutaneous tumor growth: For subcutaneous tumor growth, the cells (10^6 mouse) were injected s.c. below the right shoulder pad immediately following intracerebral injection.
(§17) To further investigate this finding, we simultaneously injected the DAOY and U87MG cells intracranially and subcutaneously before initiating treatment with the peptides as outlined under the orthotopic model.

DAOY cells [10] = test: Heterotopic (subcutaneous) tumor model, DAOY cells in nude mice
Procedure: as §16, §17

DAOY cells [11] = test: Orthotopic brain tumor model, DAOY cells injected intracerebrally in nu/nu mice; conditions: for Tumor size (mm) Brain: nu/nu mice, 100 μg/mouse daily i.p. from day 7, 4 weeks total tumor growth
Procedure: as §14
DAOY and U87MG cells (10^6 cells/mouse) were stereotactically injected into the right frontal cortex of nu/nu mice in order to establish a system that recapitulates the brain microenvironment. […] For each time, point n=5 or 6.
as §15

[12] = test system: DAOY medulloblastoma cells; test: Apoptosis of cells grown on ECM (FIG. 8), DAOY; type: cell-based, human; conditions: 20 μg/ml, 24 hours
Procedure: as §1, §2

U87 glioblastoma cells [13] = test: Apoptosis of cells grown on ECM (FIG. 8), U87; type: cell-based, human; conditions: 20 μg/ml, 24 hours
Procedure: as §1, §2

DAOY cells [14] = test: Apoptosis on vitronectin (Annexin V-FITC FACS), DAOY; type: cell-based, human; conditions: 20 μg/ml, 4 hrs
Procedure: as §3, §4, §5

[15] = test system: U87MG human brain tumor cells; test: CAM assay: angiogenesis and growth of U87MG tumors on chick chorioallantoic membrane; type: in vivo; conditions: 100 μg into a CAM vein, 6 days
Procedure: as §9, §10, §11

[16] = test system: M21L αv pos melanoma cells; test: Survival of nude mice with αv-positive melanoma cells implanted into the brain; type: in vivo; conditions: 10^6 cells into forebrain of nude mice
Text: as §8

[17] = test system: human brain endothelial cells (HBEC); test: Vitronectin migration (Boyden chamber), HBEC; type: cell-based; conditions: test substance 20 μg/ml, 4 hrs
Procedure: (§12) Migration: Transwell polycarbonate filters (8 μm pore size) were incubated for 30 min. at 37° C. with vitronectin in PBS (1 μg/ml on the upper side and 10 μg on the bottom side), blocked for 30 min. with 1% heat denatured BSA and washed with PBS. Test cells (5×10^5/well) were added in adhesion buffer containing the test substances indicated (20 μg/ml) and incubated for 4 hrs at 37° C. with the lower chamber containing adhesion buffer. Cells in the upper chamber were removed with a cotton swab and cells on the bottom part of the filter were fixed and stained with crystal violet and the number of migrated cells determined by counting.
(§13) To address whether αvβ3 and αvβ5 modulate migration on vitronectin, independent of adhestion, we tested the same cells on vitronectin-coated membranes in Boyden chambers while in the presence of blocking antibodies or cRGD. […] Since LM-609, in the absence of P1-F6, was incapable of blocking adhesion, this anti-migratory effect must be mediated through a distinct pathway which is independent of forces responsible for adhesion.

DAOY cells [18] = test: Vitronectin migration (Boyden chamber), DAOY; type: cell-based, human; conditions: test substance 20 μg/ml, 4 hrs
Procedure: as §12, §13

U87MG cells [19] = test: Vitronectin migration (Boyden chamber), U87MG; type: cell-based, human; conditions: test substance 20 μg/ml, 4 hrs
Procedure: as §12, §13

[20] = test system: C6 and 9L rat glioma xenografts; conditions: 1 mg/mouse/day; cited from earlier work
[21] = 100 μg/mouse/day from day 3, listed as active pentapeptide

CC(C)[C@H]1C(=O)N[C@@H](CCCN=C(N)N)C(=O)NCC(=O)N[C@@H](CC(=O)O)C(=O)N[C@H](Cc2ccccc2)C(=O)N1C [EMD 121974, cyclo(Arg-Gly-Asp-D-Phe-[N-Me]-Val)]
adhesion to ECM (adherent cells, OD 600) [1]: detached from vitronectin and tenascin
cell survival / apoptotic cells (brain capillary cells; brain capillary cells grown on collagen I or fibronectin): did not alter the survival
cell survival / apoptotic cells (brain capillary cells; brain capillary cells grown on vitronectin or tenascin): increased number of dead cells
apoptosis after attachment to vitronectin (primary HBEC): significant apoptosis
adhesion to vitronectin [2]: Significant inhibition
adhesion to vitronectin (DAOY cells [3]): Significant inhibition
Mouse weight (gr) (U87MG cells [4]; U87MG, 100 μg/mouse daily i.p.): 20 ± 0.71 gr
mean time to the onset of neurologic symptoms (U87MG cells [4]; U87MG, 100 μg/mouse daily i.p.): no evidence of neurological symptoms at any time
mouse weight (U87MG cells [4]; U87MG, 100 μg/mouse daily i.p., baseline 21 g): 21 g
survival (time point at which mice required sacrifice, moribund state) (U87MG cells [4]; U87MG, i.p. 100 μg/mouse/day from day 3): ≥ 15 weeks
Tumor size (mm) Brain (U87MG cells [4]; U87MG, nu/nu mice, 100 μg/mouse daily i.p. from day 3, 4 weeks total tumor growth, listed as αv-antagonist): no tumor or only scant residual tumor cells
size of residual tumor foci (U87MG cells [4]; U87MG, treated group): smaller than 1 mm^3
CD31 positive vessels in tumor sections (immunohistochemistry) (U87MG cells [4]; U87 brain tumors, 100 μg/mouse/day from day 7, 2 weeks of treatment, p<0.005): very few such vessels
apoptotic (dead) cells in tumor sections (U87MG cells [4]; U87 brain tumors, 100 μg/mouse/day from day 7, 2 weeks of treatment, p<0.02): significantly more dead cells
Survival ([5]; 100 μg/mouse/day from day 3): 15.7 ± 3.8 days
Survival [5, 21]: 15 days
adhesion to vitronectin (U87MG cells [6]): Significant inhibition
adhesion to ECM (adherent cells, OD 600) (U87 glioblastoma cells [7]): detached from vitronectin and tenascin
tumor-associated angiogenesis (stereomicroscope) [8]: significant suppression of angiogenesis
decrease of tumor weight ([8]; n=8, listed as active peptide): about 30%
decrease of tumor weight ([8]; n=8, listed as αv-antagonist): 30%
time to sacrifice necessitated by progressive growth of subcutaneous tumors (U87MG cells [9]; U87MG injected intracranially and subcutaneously): 10 weeks
inhibition of subcutaneous tumor growth (U87MG cells [9]; U87MG s.c. only, 100 μg/mouse daily i.p. from day 3, after 6 weeks): no inhibition of tumor growth
Tumor size (mm) Subcutis (U87MG cells [9]; U87MG s.c., 100 μg/mouse daily i.p.): 19 ± 0.77 mm
average size of subcutaneous tumors (DAOY cells [10]; DAOY injected into brain and subcutis, treatment from day 7, week 4 (FIG. 5)): 18 mm^3
time to sacrifice necessitated by progressive growth of subcutaneous tumors (DAOY cells [10]; DAOY injected intracranially and subcutaneously): 10 weeks
inhibition of subcutaneous tumor growth (DAOY cells [10]; DAOY s.c. only, 100 μg/mouse daily i.p. from day 7, after 6 weeks): no inhibition of tumor growth
Tumor size (mm) Subcutis (DAOY cells [10]; DAOY s.c., 100 μg/mouse daily i.p.): 17 ± 0.84 mm
Mouse weight (gr) (DAOY cells [11]; 100 μg/mouse daily i.p.): 21 ± 0.89 gr
mean time to the onset of neurologic symptoms (DAOY cells [11]; 100 μg/mouse daily i.p.): no evidence of neurological symptoms at any time
mouse weight (DAOY cells [11]; 100 μg/mouse daily i.p., baseline 21 g): 21 g
survival (time point at which mice required sacrifice, moribund state) (DAOY cells [11]; i.p. 100 μg/mouse/day from day 7): ≥ 24 weeks
Tumor size (mm) Brain (DAOY cells [11]; listed as active peptide): absence or microscopic residual disease
Tumor size (mm) Brain (DAOY cells [11]; listed as αv-antagonist): no tumor or only scant residual tumor cells
size of residual tumor foci (DAOY cells [11]; treated group): smaller than 1 mm^3
cell survival / apoptotic cells ([12]; DAOY grown on collagen I or fibronectin): did not alter the survival
cell survival / apoptotic cells ([12]; DAOY grown on vitronectin or tenascin): increased number of dead cells
cell survival / apoptotic cells (U87 glioblastoma cells [13]; U87 grown on collagen I or fibronectin): did not alter the survival
cell survival / apoptotic cells (U87 glioblastoma cells [13]; U87 grown on vitronectin or tenascin): increased number of dead cells
apoptosis after attachment to vitronectin (DAOY cells [14]): significant apoptosis
tumor-associated angiogenesis (stereomicroscope) [15]: significant suppression of angiogenesis
decrease of tumor weight ([15]; n=8, listed as active peptide): about 30%
decrease of tumor weight ([15]; n=8, listed as αv-antagonist): 30%
Survival ([16]; 100 μg/mouse/day from day 3): 36.5 ± 2.9 days
Survival [16, 21]: 36 days
migration on vitronectin [17]: significantly inhibited
migration on vitronectin (DAOY cells [18]): significantly inhibited
migration on vitronectin (U87MG cells [19]): significantly inhibited

Angiostatin
growth inhibition of intracranial glioma xenografts [20]: considerable growth inhibition
